Experimental findings from publication PMC9228282, “Catalytic Properties of Caseinolytic Protease Subunit of Plasmodium knowlesi and Its Inhibition by a Member of δ-Lactone, Hyptolide” (Molecules, 2022) are described below.

Assay [1] deals with T1, caseinolytic protease proteolytic subunit of Plasmodium knowlesi (Pk-ClpP) (Plasmodium knowlesi, UniProt A0A384LAC0).
T1 construct: gene PKNH_0835300
T1 sequence (A0A384LAC0 141-372 limits assumed): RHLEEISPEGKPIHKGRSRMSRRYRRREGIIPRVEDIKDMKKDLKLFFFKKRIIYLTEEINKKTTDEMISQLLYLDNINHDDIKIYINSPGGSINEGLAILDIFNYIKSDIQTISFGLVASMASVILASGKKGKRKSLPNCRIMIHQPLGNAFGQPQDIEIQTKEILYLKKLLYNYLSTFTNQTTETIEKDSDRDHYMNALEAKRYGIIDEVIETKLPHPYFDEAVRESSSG
The experiment in a line: chromogenic protease assay with N-CBZ-Glycine p-nitrophenyl ester on purified Pk-ClpP. The class given is biochemical.

In assay [2] the target is T1, caseinolytic protease proteolytic subunit of Plasmodium knowlesi (Pk-ClpP).
The target in assay [3] is caseinolytic protease proteolytic subunit (ClpP) of Plasmodium knowlesi (Plasmodium knowlesi). The experiment in a line: SEC; purified Pk-ClpP on HiLoad 16/60 Superdex 200pg, 50 mM Tris-HCl pH 8.0, 50 mM NaCl, 0.5 mL/min; size by comparison with protein markers. Background: In gel filtration, larger molecules generally elute earlier.

Like-named read-outs stand apart in the source and are kept apart here.

By IC50 is commonly meant the midpoint of a concentration-inhibition curve. Consider `CC(=O)O[C@H](/C=C\[C@H]1CC=CC(=O)O1)C[C@@H](OC(C)=O)[C@H](C)OC(C)=O` [Hyp, hyptolide], for which, in assay [1] (read-out: IC50), the IC50 was determined as 17.4 ± 1.44 nM.

For orientation: Km means the substrate concentration at which the rate is half of its maximum. In the case of `O=C(CNC(=O)OCc1ccccc1)Oc1ccc([N+](=O)[O-])cc1` [N-CBZ-Glycine p-nitrophenyl ester], the Km in assay [2] was found to be 3.07 ± 0.18 µM.

Compound `O=S(=O)(F)Cc1ccccc1` [PMSF, phenylmethylsulfonyl fluoride, reference compound] displayed an IC50 in assay [1] of 6.9 ± 0.18 nM. As a reminder, the stoichiometry N is a count of units in the complex or per binding partner. Regarding “caseinolytic protease proteolytic subunit (ClpP) of Plasmodium knowlesi (enzyme)”, in assay [3], the stoichiometry N turned out to be 7.
